# Measured values from US4987140A, “Pyridines” (Roussel Uclaf, priority 1987, dated 1991).
# Tested on: chronic-arthritis with adjuvant (increase in volume of the rear paws)
# Assay: Anti-inflammatory activity: chronic-arthritis with adjuvant (preventative treatment)
# Type: in vivo, rat
# Settings: male rats aged 42 to 50 days, intra-plantar Freund type adjuvant, product orally from day 0 up to the day before killing (day 17), 24480 min
# Procedure: Anti-inflammatory activity: chronic-arthritis with adjuvant (preventative treatment)
# In the rat, the injection of Freund type adjuvant in a rear paw causes the rapid appearance of a primary inflammatory lesion in this paw and then, after a latency period of 13 to 15 days, the start up of a secondary arthritic affection, particularly in the other rear paw. The test was carried out on male rats aged 42 to 50 days which received an intra-plantar injection of 0.1 ml of "Freund" type adjuvant (suspension in vaseline oil of 6 mg per ml of killed mycobacterium butyricum). The animals received the product orally from day 0 (day of injection of adjuvant) up to the day before they were killed, which occured on day 17. Control arthritic animals and control normal animals received only the vehicle. The criteria of appreciation of the activity of the substances studied was the increases in volume of the injected rear paws (primary and secondary inflammation) and the non-injected ones (secondary inflammation)by comparison with the average volume of the corresponding paws of normal controls. The DA50 was determined, that is to say, the dose which reduced by 50% the increase in volume of the rear paws of the treated animals in comparison with the control animals.
smiles,measurement,value
"Cc1c(-c2ccccc2)nc(C(F)(F)F)c(C(=O)Nc2nccs2)c1O [Example 1, 4-hydroxy-5-methyl-6-phenyl-N-(2-thiazolyl)-2-trifluoromethyl-3-pyridine carboxamide]",DA50 (dose which reduced by 50% the increase in volume of the rear paws of the treated animals in comparison with the control animals),0.3 mg/k
"O=C(Nc1nccs1)c1c(C(F)(F)F)nc(-c2ccccc2)c(-c2ccccc2)c1O [Example 3, 5,6-diphenyl-4-hydroxy-N-(2-thiazolyl)-2-trifluoromethyl-3-pyridine carboxamide]",DA50 (dose which reduced by 50% the increase in volume of the rear paws of the treated animals in comparison with the control animals),15 mg/k
